# Values joined by “and” are separate entries in the source; they are usually repeats but may differ in a detail not shown here. Equal entries are not always repeated.
# What was measured:
# [1] = tested on: S. furcifera adults; assay: Y-tube olfactometer behavioral trials; assay type: in vivo, Sogatella furcifera; conditions: odorant 50 µL/L vs hexane
# Method: To test the effect of the rice odorants on the behavior of S. furcifera adults, a glass Y-tube olfactometer (inner diameter 2.0 cm, stem 13 cm, arms 10 cm, angle of arms 60°) according to the previously described ([Wang et al., 2014b]) was employed. An airtight cubic box (70 by 45 by 30 cm) was used to position Y-tube, and the Y-tube was lighted by a 30-W filament lamp 25 cm above it. Air that filtered through activated charcoal and humidified with doubly distilled water was pumped in both arms at a flow rate of 300 mL/min. Two filter paper strips (10 by 1 cm) containing 100 µL odorant source (50 µL/L) and 100 µL control hexane were placed in two holding chambers in the front of the olfactometer, respectively. A S. furcifera adult (2 days after emergence, starved for 0.5 h) was randomly chosen and placed in the stem of the Y-tube. Each insect was given 10 min to choose between the two arms of the Y-tube, the choice was noted if the planthopper reached one-half of the arms’ lengths and stayed in the arm for more than 1 min. Besides, S. furcifera was considered as having no orientation preference. Forty-five individuals were used for each compound, each insect used only once. And the dual-choice experiment was done in an environmentally controlled room (25 ± 1 °C and 50% RH). A Chi-squared test was used to analyze the behavioral assay data by using SPSS19.0 (SPSS Inc., Chicago, IL, USA) software.
# [2] = biological target: SfurOBP1 (Sogatella furcifera, UniProt V5T8N5); assay: biochemical; assay type: binding; conditions: for Fluorescence competitive binding assay, fluorescence intensity: OBP1, three replicate columns
# Method in brief: (§1)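 K1-NPN came from titrating 2.0 µM protein (50 mM Tris-HCl, pH 7.4) with 1-NPN. Odorants at 2-20 µM then competed against 2.0 µM protein plus 2.0 µM 1-NPN for 2 min, with excitation at 337 nm and emission recorded over 390-490 nm. IC50 values were converted to Ki via Ki = IC50/(1 + [1-NPN]/K1-NPN).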
# [3] = biological target: SfurOBP11 (Sogatella furcifera, UniProt V5T6E3); assay: biochemical; assay type: binding
# Method in brief: as §1
# [4] = biological target: SfurOBP2 (Sogatella furcifera, UniProt V5T759); assay: biochemical; assay type: binding
# Method in brief: as §1
# [5] = biological target: SfurOBP3 (Sogatella furcifera, UniProt V5T818); assay: biochemical; assay type: binding; conditions: for Fluorescence competitive binding assay, fluorescence intensity: OBP3, three replicate columns
# Method in brief: as §1
# SfurOBP1, sequence (V5T8N5 entry or part of it): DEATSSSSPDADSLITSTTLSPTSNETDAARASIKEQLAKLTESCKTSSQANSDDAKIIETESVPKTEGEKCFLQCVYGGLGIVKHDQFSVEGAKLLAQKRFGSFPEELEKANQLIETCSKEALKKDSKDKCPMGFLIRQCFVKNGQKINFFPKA
# SfurOBP2, sequence (V5T759 entry or part of it): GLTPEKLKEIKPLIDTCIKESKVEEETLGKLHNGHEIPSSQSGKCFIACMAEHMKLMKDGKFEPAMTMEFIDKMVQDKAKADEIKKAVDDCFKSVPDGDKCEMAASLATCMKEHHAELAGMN
# SfurOBP3, sequence (V5T818 entry or part of it): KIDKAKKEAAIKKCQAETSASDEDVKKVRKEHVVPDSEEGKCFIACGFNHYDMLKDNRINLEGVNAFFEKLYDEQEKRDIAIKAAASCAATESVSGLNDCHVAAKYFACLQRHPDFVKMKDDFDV
# SfurOBP11, sequence (V5T6E3 entry or part of it): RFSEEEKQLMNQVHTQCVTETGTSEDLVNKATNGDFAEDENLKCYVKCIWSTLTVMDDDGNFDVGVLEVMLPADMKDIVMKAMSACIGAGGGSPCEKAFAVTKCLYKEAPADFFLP
smiles,measurement,setting,value
CCCCCC(C)=O [2-heptanone],behavioral response of S. furcifera (in words),[1],strongly attracted
same,number of insects choosing hexane arm,[1]; adults,8
same,number of insects choosing volatilies arm,[1]; adults,21
same,number of insects failed (no choice),[1]; adults,11
same,"Fluorescence competitive binding assay, fluorescence intensity",[2]; ligand concentration 2 (μM),5565 and 5797 and 5680
same,"Fluorescence competitive binding assay, fluorescence intensity",[2]; ligand concentration 4 (μM),6133 and 7369 and 7766
same,"Fluorescence competitive binding assay, fluorescence intensity",[2]; ligand concentration 6 (μM),7319 and 6450 and 6758
same,"Fluorescence competitive binding assay, fluorescence intensity",[2]; ligand concentration 8 (μM),6247 and 6677 and 6608
same,"Fluorescence competitive binding assay, fluorescence intensity",[2]; ligand concentration 10 (μM),5974 and 6580 and 6200
same,"Fluorescence competitive binding assay, fluorescence intensity",[2]; ligand concentration 12 (μM),6115 and 6844 and 6487
same,"Fluorescence competitive binding assay, fluorescence intensity",[2]; ligand concentration 14 (μM),7227 and 6939 and 7296
same,"Fluorescence competitive binding assay, fluorescence intensity",[2]; ligand concentration 16 (μM),7221 and 7791 and 6651
same,"Fluorescence competitive binding assay, fluorescence intensity",[2]; ligand concentration 18 (μM),6902 and 6623 and 6730
same,"Fluorescence competitive binding assay, fluorescence intensity",[2]; ligand concentration 20 (μM),6454 and 6429 and 6479
same,IC50,"[2]; SfurOBP1, protein and 1-NPN both 2.0 µM, competitor 2-20 µM, read-out: IC50",> 20 µM
same,IC50,"[3]; SfurOBP11, protein and 1-NPN both 2.0 µM, competitor 2-20 µM, read-out: IC50",> 20 µM
same,"Fluorescence intensity, fluorescence competitive binding assay, OBP11","[3]; ligand concentration 2, replicate 1",24306
same,"Fluorescence intensity, fluorescence competitive binding assay, OBP11","[3]; ligand concentration 2, replicate 2",24787
same,"Fluorescence intensity, fluorescence competitive binding assay, OBP11","[3]; ligand concentration 2, replicate 3",25268
same,"Fluorescence intensity, fluorescence competitive binding assay, OBP11","[3]; ligand concentration 4, replicate 1",24848
same,"Fluorescence intensity, fluorescence competitive binding assay, OBP11","[3]; ligand concentration 4, replicate 2",24623
same,"Fluorescence intensity, fluorescence competitive binding assay, OBP11","[3]; ligand concentration 4, replicate 3",25072
same,"Fluorescence intensity, fluorescence competitive binding assay, OBP11","[3]; ligand concentration 6, replicate 1",24984
same,"Fluorescence intensity, fluorescence competitive binding assay, OBP11","[3]; ligand concentration 6, replicate 2",24187
same,"Fluorescence intensity, fluorescence competitive binding assay, OBP11","[3]; ligand concentration 6, replicate 3",25781
same,"Fluorescence intensity, fluorescence competitive binding assay, OBP11","[3]; ligand concentration 8, replicate 1",23438
same,"Fluorescence intensity, fluorescence competitive binding assay, OBP11","[3]; ligand concentration 8, replicate 2",23156
same,"Fluorescence intensity, fluorescence competitive binding assay, OBP11","[3]; ligand concentration 8, replicate 3",23719
same,"Fluorescence intensity, fluorescence competitive binding assay, OBP11","[3]; ligand concentration 10, replicate 1",22448
same,"Fluorescence intensity, fluorescence competitive binding assay, OBP11","[3]; ligand concentration 10, replicate 2",22213
same,"Fluorescence intensity, fluorescence competitive binding assay, OBP11","[3]; ligand concentration 10, replicate 3",22684
same,"Fluorescence intensity, fluorescence competitive binding assay, OBP11","[3]; ligand concentration 12, replicate 1",22134
same,"Fluorescence intensity, fluorescence competitive binding assay, OBP11","[3]; ligand concentration 12, replicate 2",22969
same,"Fluorescence intensity, fluorescence competitive binding assay, OBP11","[3]; ligand concentration 12, replicate 3",22151
same,"Fluorescence intensity, fluorescence competitive binding assay, OBP11","[3]; ligand concentration 14, replicate 1",21048
same,"Fluorescence intensity, fluorescence competitive binding assay, OBP11","[3]; ligand concentration 14, replicate 2",20368
same,"Fluorescence intensity, fluorescence competitive binding assay, OBP11","[3]; ligand concentration 14, replicate 3",20708
same,"Fluorescence intensity, fluorescence competitive binding assay, OBP11","[3]; ligand concentration 16, replicate 1",19801
same,"Fluorescence intensity, fluorescence competitive binding assay, OBP11","[3]; ligand concentration 16, replicate 2",20307
same,"Fluorescence intensity, fluorescence competitive binding assay, OBP11","[3]; ligand concentration 16, replicate 3",20932
same,"Fluorescence intensity, fluorescence competitive binding assay, OBP11","[3]; ligand concentration 18, replicate 1",20181
same,"Fluorescence intensity, fluorescence competitive binding assay, OBP11","[3]; ligand concentration 18, replicate 2",20256
same,"Fluorescence intensity, fluorescence competitive binding assay, OBP11","[3]; ligand concentration 18, replicate 3",20300
same,"Fluorescence intensity, fluorescence competitive binding assay, OBP11","[3]; ligand concentration 20, replicate 1",20105
same,"Fluorescence intensity, fluorescence competitive binding assay, OBP11","[3]; ligand concentration 20, replicate 2",20028
same,"Fluorescence intensity, fluorescence competitive binding assay, OBP11","[3]; ligand concentration 20, replicate 3",20212
same,IC50,"[4]; SfurOBP2, protein and 1-NPN both 2.0 µM, competitor 2-20 µM, read-out: IC50",> 20 µM
same,"Fluorescence competitive binding assay, OBP2 (raw fluorescence reading)","[4]; ligand concentration 2 (unit not given), replicate column 1 of 3",19792
same,"Fluorescence competitive binding assay, OBP2 (raw fluorescence reading)","[4]; ligand concentration 2 (unit not given), replicate column 2 of 3",17859
same,"Fluorescence competitive binding assay, OBP2 (raw fluorescence reading)","[4]; ligand concentration 2 (unit not given), replicate column 3 of 3",20079
same,"Fluorescence competitive binding assay, OBP2 (raw fluorescence reading)","[4]; ligand concentration 4 (unit not given), replicate column 1 of 3",17338
same,"Fluorescence competitive binding assay, OBP2 (raw fluorescence reading)","[4]; ligand concentration 4 (unit not given), replicate column 2 of 3",18012
same,"Fluorescence competitive binding assay, OBP2 (raw fluorescence reading)","[4]; ligand concentration 4 (unit not given), replicate column 3 of 3",20388
same,"Fluorescence competitive binding assay, OBP2 (raw fluorescence reading)","[4]; ligand concentration 6 (unit not given), replicate column 1 of 3",17013
same,"Fluorescence competitive binding assay, OBP2 (raw fluorescence reading)","[4]; ligand concentration 6 (unit not given), replicate column 2 of 3",18530
same,"Fluorescence competitive binding assay, OBP2 (raw fluorescence reading)","[4]; ligand concentration 6 (unit not given), replicate column 3 of 3",19352
same,"Fluorescence competitive binding assay, OBP2 (raw fluorescence reading)","[4]; ligand concentration 8 (unit not given), replicate column 1 of 3",15771
same,"Fluorescence competitive binding assay, OBP2 (raw fluorescence reading)","[4]; ligand concentration 8 (unit not given), replicate column 2 of 3",11853
same,"Fluorescence competitive binding assay, OBP2 (raw fluorescence reading)","[4]; ligand concentration 8 (unit not given), replicate column 3 of 3",17932
same,"Fluorescence competitive binding assay, OBP2 (raw fluorescence reading)","[4]; ligand concentration 10 (unit not given), replicate column 1 of 3",15741
same,"Fluorescence competitive binding assay, OBP2 (raw fluorescence reading)","[4]; ligand concentration 10 (unit not given), replicate column 2 of 3",17236
same,"Fluorescence competitive binding assay, OBP2 (raw fluorescence reading)","[4]; ligand concentration 10 (unit not given), replicate column 3 of 3",17972
same,"Fluorescence competitive binding assay, OBP2 (raw fluorescence reading)","[4]; ligand concentration 12 (unit not given), replicate column 1 of 3",14577
same,"Fluorescence competitive binding assay, OBP2 (raw fluorescence reading)","[4]; ligand concentration 12 (unit not given), replicate column 2 of 3",14468
same,"Fluorescence competitive binding assay, OBP2 (raw fluorescence reading)","[4]; ligand concentration 12 (unit not given), replicate column 3 of 3",15583
same,"Fluorescence competitive binding assay, OBP2 (raw fluorescence reading)","[4]; ligand concentration 14 (unit not given), replicate column 1 of 3",14055
same,"Fluorescence competitive binding assay, OBP2 (raw fluorescence reading)","[4]; ligand concentration 14 (unit not given), replicate column 2 of 3",13126
same,"Fluorescence competitive binding assay, OBP2 (raw fluorescence reading)","[4]; ligand concentration 14 (unit not given), replicate column 3 of 3",14409
same,"Fluorescence competitive binding assay, OBP2 (raw fluorescence reading)","[4]; ligand concentration 16 (unit not given), replicate column 1 of 3",12777
same,"Fluorescence competitive binding assay, OBP2 (raw fluorescence reading)","[4]; ligand concentration 16 (unit not given), replicate column 2 of 3",13653
same,"Fluorescence competitive binding assay, OBP2 (raw fluorescence reading)","[4]; ligand concentration 16 (unit not given), replicate column 3 of 3",13817
same,"Fluorescence competitive binding assay, OBP2 (raw fluorescence reading)","[4]; ligand concentration 18 (unit not given), replicate column 1 of 3",17551
same,"Fluorescence competitive binding assay, OBP2 (raw fluorescence reading)","[4]; ligand concentration 18 (unit not given), replicate column 2 of 3",16085
same,"Fluorescence competitive binding assay, OBP2 (raw fluorescence reading)","[4]; ligand concentration 18 (unit not given), replicate column 3 of 3",21813
same,"Fluorescence competitive binding assay, OBP2 (raw fluorescence reading)","[4]; ligand concentration 20 (unit not given), replicate column 1 of 3",14165
same,"Fluorescence competitive binding assay, OBP2 (raw fluorescence reading)","[4]; ligand concentration 20 (unit not given), replicate column 2 of 3",14167
same,"Fluorescence competitive binding assay, OBP2 (raw fluorescence reading)","[4]; ligand concentration 20 (unit not given), replicate column 3 of 3",13571
same,"Fluorescence competitive binding assay, fluorescence intensity",[5]; ligand concentration 2,37101 and 37506 and 37304
same,"Fluorescence competitive binding assay, fluorescence intensity",[5]; ligand concentration 4,36141 and 37871 and 37816
same,"Fluorescence competitive binding assay, fluorescence intensity",[5]; ligand concentration 6,36419 and 39158 and 37789
same,"Fluorescence competitive binding assay, fluorescence intensity",[5]; ligand concentration 8,33665 and 34797 and 35932
same,"Fluorescence competitive binding assay, fluorescence intensity",[5]; ligand concentration 10,33290 and 35900 and 35256
same,"Fluorescence competitive binding assay, fluorescence intensity",[5]; ligand concentration 12,29962 and 33001 and 33859
same,"Fluorescence competitive binding assay, fluorescence intensity",[5]; ligand concentration 14,28260 and 30707 and 32190
same,"Fluorescence competitive binding assay, fluorescence intensity",[5]; ligand concentration 16,28891 and 29426 and 29159
same,"Fluorescence competitive binding assay, fluorescence intensity",[5]; ligand concentration 18,26989 and 27471 and 26506
same,"Fluorescence competitive binding assay, fluorescence intensity",[5]; ligand concentration 20,26994 and 26547 and 27440
same,binding affinity to SfurOBP3 (in words),[5]; SfurOBP3,high binding affinities
same,IC50,"[5]; SfurOBP3, protein and 1-NPN both 2.0 µM, competitor 2-20 µM, read-out: IC50",15.5 µM

# — paper PMC6409085, “Three odorant-binding proteins are involved in the behavioral response of Sogatella furcifera to rice plant volatiles” (PeerJ, 2019)
